Source: patent publication US7037647B1, “Prostate-specific membrane antigen and uses thereof” (Sloan-Kettering Institute for Cancer Research, priority 1995, dated 2006)
Where two headings read alike, the source gives them in different places.

Legend:
[1] = system: PSM mRNA expression in LNCaP cells; experiment: Steroid modulation of PSM mRNA expression, ribonuclease protection assay; assay type: cell-based, human; conditions: 24 hours; for downregulation of PSM mRNA expression: charcoal-extracted serum media, steroid 2 nM; for effect on PSM mRNA expression (in words): physiologic doses of steroids
Description: A portion of the PSM cDNA was subcloned into the plasmid vector pSPORT 1 (Gibco-BRL) and the orientation of the cDNA insert relative to the flanking T7 and SP6 RNA polymerase promoters was verified by restriction analysis. Linearization of this plasmid upstream of the PSM insert followed by transcription with SP6 RNA polymerase yields a 400 nucleotide antisense RNA probe, of which 350 nucleotides should be protected from RNase digestion by PSM RNA. This probe was used in FIG. 20. Plasmid IN-20, containing a 1 kb partial PSM cDNA in the plasmid pCR II (Invitrogen) was also used for riboprobe synthesis. IN-20 linearized with Xmn I (Gibco-BRL) yields a 298 nucleotide anti-sense RNA probe when transcribed using SP6 RNA polymerase, of which 260 nucleotides should be protected from RNase digestion by PSM mRNA. This probe was used in FIGS. 21 and 22. Probes were synthesized using SP6 RNA polymerase (Gibco-BRL), rNTPs (Gibco-BRL), RNAsin (Promega), and ^32P-rCTP (NEN, Wilmington, Del.) according to published protocols (13). Probes were purified over NENSORB 20 purification columns (NEN) and approximately 1 million cpm of purified, radiolabeled PSM probe was mixed with 10μ of each RNA and hybridized overnight at 45 C using buffers and reagents from the RPA II kit (Ambion, Austin, Tex.). Samples were processed as per manufacturer's instructions and analyzed on 5% polyacrilamide/7M urea denaturing gels using Seq ACRYL reagents (ISS, Natick, Mass.). Gels were pre-heated to 55 C and run for approximately 1-2 hours at 25 watts. Gels were then fixed for 30 minutes in 10% methanol/10% acetic acid, dried onto Whatman 3MM paper at 80 C in a BioRad vacuum dryer and autoradiographed overnight with Hyperfilm MP (Amersham). Quantitation of PSM expression was determined by using a scanning laser densitometer (LKB, Piscataway, N.J.).
LNCaP cells (2 million) were plated onto T-75 flasks in RPMI 1640 media supplemented with 5% fetal calf serum and grown 24 hours until approximately 30-40% confluent. Flasks were then washed several times with phophate-buffered saline and RPMI medium supplemented with 5% charcoal-extracted serum was added. Cells were then grown for another 24 hours, at which time dihydrotesterone, testosterone, estradiol, progesterone, and dexamethasone (Steraloids Inc., Wilton, N.H.) were added at a final concentration of 2 nM. Cells were grown for another 24 hours and RNA was then harvested as previously described and PSM expression analyzed by ribonuclease protection analysis.

[2] = biological target: T1, PSM enzyme (folate hydrolase) (Homo sapiens, UniProt Q04609); assay type: biochemical; conditions: for hydrolysis as substrate by the PSM enzyme (in words): LNCaP membrane preparations
T1 construct: membrane preparations from androgen-sensitive human prostatic carcinoma cells (LNCaP); endogenous in cells; host or cells: LNCaP cell membranes
Description: Using capillary electrophoresisis pteroyl poly-gamma-glutamate carboxypeptidase (hydrolase) activity was investigated in membrane preparations from androgen-sensitive human prostatic carcinoma cells (LNCaP).

[3] = biological target: T2, Prostate specific membrane antigen (Homo sapiens, UniProt Q04609); experiment: Inhibition of neuropeptidase activity (NAAG as substrate) of immunoprecipitated PSM; assay type: biochemical
T2 construct: Prostate specific membrane antigen was immuno precipitated from the prostate cancer cell line LNCaP; endogenous in cells; host or cells: LNCaP (immunoprecipitate)
Description: PSM may have activities both as a folate hydrolase and a carboxyneuropeptidase. For the cytotoxic drug methotrexate to be a tumor toxin it has to get into the cell and be polygammaglutamated which to be active, because polyglutamated forms serve as the enzyme substrates and because polyglutamated forms or toxins are also retained by the cell. Folate hydrolase is a competing reaction and deglutamates methotrexate which then can diffuse back out of the cell. Cells that overexpose folate hydrolase activity are resistant to methotrexate. Prostate cancer has always been absolutely refractory to methotrexate therapy and this may explain why, since the prostate and prostate cancer has a lot of folate hydolase activity. However, based on this activity, prodrugs may be generated which would be activate at the site of the tumor such as N-phosphonoacetyl-1-aspartate-glutamate.
Folate is necessary for the support of cell function and growth and thus this enzyme may serve to modulate folate access to the prostate and prostate tumor. The other area where PSM is expressed is in the small intestine. It turns out that a key enzyme of the small intestine that is involved in folate uptake acts as a gamma-carboxypeptidase in sequentially proteolytically removing the terminal gammaglutaminyl group from folate. […]

[4] = system: PSM mRNA expression in LNCaP cells; experiment: Modulation of PSM mRNA expression by cytokines and growth factors, Northern blot and laser densitometry; assay type: cell-based, human; conditions: 24 to 72 hours, 0.1 ng/ml to 100 ng/ml; for upregulation of PSM expression compared to untreated LNCaP: androgen-depleted media; for downregulation of PSM expression: androgen depleted LNCaP cells
Description: Total RNA was extracted from the cells and PSM mRNA expression was quantitated by Northern blot analysis and laser densitometry.

PC-3 cells = experiment: Mitogenic response to transferrin, cell count; assay type: cell-based, human; conditions: 1 μg per ml holotransferrin, counted at 5 days
Experimental: 2×10^4 PC-3 or PSM-transfected PC-3 cells per well ere plated in RPMI medium supplemented with 10% fetal bovine serum and at 24 hrs. added 1 μg per ml. of holotransferrin to the cells. […] Cells were counted at 1 day to determine plating efficiency and at 5 days to determine the effect of the transferrin. Experiments were repeated to verify the results.

LNCaP cells = experiment: Mitogenic response to transferrin, cell count; assay type: cell-based, human
[5] = 0.05-0.5 mM, semi-purified membrane-bound enzyme

T1 sequence (Q04609 whole entry): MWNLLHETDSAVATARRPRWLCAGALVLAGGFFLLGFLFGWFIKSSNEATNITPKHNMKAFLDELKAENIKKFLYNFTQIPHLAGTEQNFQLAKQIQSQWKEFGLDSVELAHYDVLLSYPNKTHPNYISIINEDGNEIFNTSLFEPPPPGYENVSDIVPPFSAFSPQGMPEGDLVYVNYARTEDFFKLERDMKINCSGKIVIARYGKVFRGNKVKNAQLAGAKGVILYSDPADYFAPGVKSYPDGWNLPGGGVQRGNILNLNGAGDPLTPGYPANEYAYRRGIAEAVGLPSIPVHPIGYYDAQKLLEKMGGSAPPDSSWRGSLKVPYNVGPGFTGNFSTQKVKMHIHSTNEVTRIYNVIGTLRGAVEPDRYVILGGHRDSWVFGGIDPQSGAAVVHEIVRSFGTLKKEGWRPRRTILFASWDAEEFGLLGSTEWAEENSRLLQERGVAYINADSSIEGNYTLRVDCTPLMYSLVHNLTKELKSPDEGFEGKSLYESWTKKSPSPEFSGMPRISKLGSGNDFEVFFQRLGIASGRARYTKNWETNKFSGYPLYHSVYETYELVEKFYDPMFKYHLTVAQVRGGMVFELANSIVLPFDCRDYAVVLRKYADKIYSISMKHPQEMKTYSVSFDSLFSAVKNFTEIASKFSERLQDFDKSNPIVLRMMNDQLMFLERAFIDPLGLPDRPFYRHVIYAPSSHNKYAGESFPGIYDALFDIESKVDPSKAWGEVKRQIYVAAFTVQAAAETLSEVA
T2 sequence (Q04609 whole entry): as above

## C[C@]12CC[C@H]3[C@@H](CCC4=CC(=O)CC[C@@]43C)[C@@H]1CC[C@@H]2O [testosterone]
[1]
  downregulation of PSM mRNA expression: 3-4 fold
  effect on PSM mRNA expression (in words): significantly diminished PSM expression

## Penta-gammaglutamyl-folate
[2]
  hydrolysis as substrate by the PSM enzyme (in words): liberates progressively glutamates
[3]; read-out: Ki, inhibition of the activity of the enzyme
  Ki: 500 nM

## O=C(O)c1cc[c]([Hg+])cc1.[OH-] [p-hydroxymercuribenzoate]
[2]; [5]
  inhibition of enzymatic activity (in words): not

## C[C@]12CCC(=O)C[C@@H]1CC[C@@H]1[C@@H]2CC[C@]2(C)[C@@H](O)CC[C@@H]12 [DHT, dihydrotesterone]
[1]
  doses at which maximal downregulation of PSM mRNA was seen: 2 to 20 nM
  downregulation of PSM mRNA expression: 8-10 fold
  effect on PSM mRNA expression (in words): significantly diminished PSM expression

## b-FGF: growth factor
[4]
  upregulation of PSM expression compared to untreated LNCaP: 10 fold

## N[C@@H](CCC(=O)N[C@@H](CS)C(=O)NCC(=O)O)C(=O)O [reduced glutathione]
[2]
  inhibition of enzymatic activity (in words): not

## TGFα: growth factor, mitogenic for aggressive prostate cancer cells
[4]
  upregulation of PSM expression compared to untreated LNCaP: 10 fold

## CN(Cc1cnc2nc(N)nc(N)c2n1)c1ccc(C(=O)N[C@@H](CCC(=O)N[C@@H](CCC(=O)N[C@@H](CCC(=O)O)C(=O)O)C(=O)O)C(=O)O)cc1 [MTXGlu3, methotrexate triuglutamate]
[2]
  hydrolysis as substrate by the PSM enzyme (in words): liberates progressively glutamates

## N[C@@H](CCS)C(=O)O [homocysteine]
[2]; [5]
  inhibition of enzymatic activity (in words): not

## CC(=O)[C@H]1CC[C@H]2[C@@H]3CCC4=CC(=O)CC[C@]4(C)[C@H]3CC[C@]12C [progesterone]
[1]
  effect on PSM mRNA expression (in words): downregulated PSM expression
[1]; listed as Progesterone
  effect on PSM mRNA expression (in words): significantly diminished PSM expression

## transferrin: holotransferrin added at 1 μg per ml to the cells
PC-3 cells
  average increase in cell growth over controls: 275%
LNCaP cells
  stimulation of cell growth: 43%

## O[C@@H](CS)[C@@H](O)CS [dithfothreitol]
[2]; ≧0.2 mM, semi-purified membrane-bound enzyme
  inhibition of enzymatic activity (in words): weakly inhibited

## O=C(O)CC[C@H](NC(=O)[C@H](CC(=O)O)NC(=O)CP(=O)(O)O)C(=O)O [PALglu, N-phosphonoacetyl-1-aspartate-glutamate]
[3]; NAAG as a substrate
  inhibition of neuropeptidase activity (in words): is an inhibitor of the enzyme activity

## TNFα
[4]
  downregulation of PSM expression: 8 fold

B1: TNFβ: cytokine (protein, UniProt P01374 35-205, looked up)
Lymphotoxin-alpha: LPGVGLTPSAAQTARQHPKMHLAHSTLKPAAHLIGDPSKQNSLLWRANTDRAFLQDGFSLSNNSLLVPTSGIYFVYSQVVFSGKAYSPKATSSPLYLAHEVQLFSSQYPFHVPLLSSQKMVYPGLQEPWLHSMYHGAAFQLTQGDQLSTHTDGIPHLVLSPSTVFFGAFAL
[4]
  downregulation of PSM expression: 8 fold
